From ChEMBL document CHEMBL1806368 (Bioorg Med Chem Lett, 2011) come the findings set out here.

Series [1] in a line: Aqueous solubility of the compound at pH 7.4. Format: physicochemical. Conditions: buffer.
Series [2] is described as follows: Plasma concentration in human U87MG cells xenografted mouse at 50 mg/kg, po after 6 hrs. The arrangement: dose 50 mg/kg, route oral. Format: ADME, organism-based, U-87MG ATCC.
Series [3] can be described thus: Plasma concentration in human U87MG cells xenografted mouse at 50 mg/kg, iv after 24 hrs. It counts as ADME, organism-based, U-87MG ATCC. Details: dose 50 mg/kg, route intravenous.
A short description of series [4]: Drug level in tumor in human U87MG cells xenografted mouse at 50 mg/kg, iv after 6 hrs. Format: ADME, organism-based, Neoplasm, U-87MG ATCC. Details: dose 50 mg/kg, route intravenous. Conditions: read-out: Drug uptake.
Series [5] can be described thus: Plasma concentration in human U87MG cells xenografted mouse at 50 mg/kg, iv after 6 hrs. It counts as ADME, organism-based, U-87MG ATCC. The arrangement: dose 50 mg/kg, route intravenous.
The nature of series [6]: Drug level in tumor in human NCI-H1975 cell xenografted mouse at 25 mg/kg, iv after 6 hrs. Format: ADME, organism-based, Neoplasm. Details: dose 25 mg/kg, route intravenous. The conditions noted are these: read-out: Drug uptake.
Series [7] can be described thus: Cmax in CD1 mouse at 20 mg/kg, po. Format: ADME, organism-based. Details: dose 20 mg/kg, route oral. Conditions: in vivo.
Series [8] is described as follows: Drug level in tumor in human U87MG cells xenografted mouse at 50 mg/kg, iv after 24 hrs. It counts as ADME, organism-based, Neoplasm, U-87MG ATCC. Conditions: read-out: Drug uptake. The arrangement: dose 50 mg/kg, route intravenous.
Series [9] in a line: Bioavailability in CD1 mouse at 2 mg/kg, iv. Format: ADME, organism-based. The conditions noted are these: in vivo.
A short description of series [10]: Plasma concentration in human NCI-H1975 cell xenografted mouse at 25 mg/kg, iv after 24 hrs. It counts as ADME, organism-based. The arrangement: dose 25 mg/kg, route intravenous.
Series [11] in a line: Plasma concentration in human U87MG cells xenografted mouse at 50 mg/kg, po after 24 hrs. Format: ADME, organism-based, U-87MG ATCC. Details: dose 50 mg/kg, route oral.
Series [12] is described as follows: Tmax in CD1 mouse at 20 mg/kg, po. Format: ADME, organism-based. The arrangement: dose 20 mg/kg, route oral. The conditions noted are these: in vivo.
The nature of series [13]: Drug level in tumor in human U87MG cells xenografted mouse at 50 mg/kg, po after 24 hrs. It counts as ADME, organism-based, Neoplasm, U-87MG ATCC. Details: dose 50 mg/kg, route oral. Conditions: read-out: Drug uptake.
A short description of series [14]: Drug level in tumor in human NCI-H1975 cell xenografted mouse at 25 mg/kg, iv after 24 hrs. The conditions noted are these: read-out: Drug uptake. Format: ADME, organism-based, Neoplasm. The arrangement: dose 25 mg/kg, route intravenous.
A short description of series [15]: AUC (0 to infinity) in CD1 mouse at 20 mg/kg, po. Format: ADME, organism-based. The arrangement: time infinity, dose 20 mg/kg, route oral. The conditions noted are these: plasma.
The nature of series [16]: Volume of distribution at steady state in CD1 mouse at 2 mg/kg, iv. It counts as ADME, organism-based. Details: dose 2 mg/kg, route intravenous. The conditions noted are these: in vivo, read-out: Vdss.
Series [17] can be described thus: AUC (0 to infinity) in CD1 mouse at 2 mg/kg, iv. The arrangement: time infinity, dose 2 mg/kg, route intravenous. Format: ADME, organism-based. The conditions noted are these: plasma.
Series [18] is described as follows: Drug level in tumor in human U87MG cells xenografted mouse at 50 mg/kg, po after 6 hrs. It counts as ADME, organism-based, Neoplasm, U-87MG ATCC. The arrangement: dose 50 mg/kg, route oral. The conditions noted are these: read-out: Drug uptake.
Series [19] in a line: Plasma concentration in human NCI-H1975 cell xenografted mouse at 25 mg/kg, iv after 6 hrs. Format: ADME, organism-based. The arrangement: dose 25 mg/kg, route intravenous.

Values after ≈ are worked out from the molar mass of the structure shown.

For the molecule `Cc1c2c(n3c1CCCNC[C@H](C)Nc1cc-3ccc1C(N)=O)CC(C)(C)CC2=O`, the solubility in series [1] (read-out: solubility) was over 100 µg/mL.

Consider `Cc1c2c(n3c1CCN(C(=O)[C@H](C)N)CC[C@H](C)Nc1cc-3ccc1C(N)=O)CC(C)(C)CC2=O`, for which, in series [1] (read-out: solubility), the solubility was over 100 µg/mL.

For the molecule `Cc1c2c(n3c1CCCN1CCC[C@H]1CNc1cc-3ccc1C(N)=O)CC(C)(C)CC2=O`, the solubility in series [1] was found to be 2324 µg/mL (≈ 5350 µM).

As to `Cc1c2c(n3c1CCN(C(=O)[C@@H]1C[C@H](F)CN1)C[C@@H](C)[C@H](C)Nc1cc-3ccc1C(N)=O)CC(C)(C)CC2=O`, the solubility in series [1] (read-out: solubility) was 100 µg/mL (≈ 186 µM).

Regarding `CC(=O)N1CCc2c(C)c3c(n2-c2ccc(C(N)=O)c(c2)N[C@@H](C)[C@H](C)C1)CC(C)(C)CC3=O`, in series [1] (read-out: solubility), the solubility was 38 µg/mL (≈ 81.8 µM).

Take `Cc1c2c(n3c1CCN(C(=O)CN)C[C@@H](C)[C@H](C)Nc1cc-3ccc1C(N)=O)CC(C)(C)CC2=O`: the solubility in [1] (read-out: solubility) amounted to 46 µg/mL (≈ 95.9 µM).

In the case of `Cc1c2c(n3c1CCN(C(=O)[C@H](C)N)C[C@@H](C)[C@H](C)Nc1cc-3ccc1C(N)=O)CC(C)(C)CC2=O`, the concentration at 6 h in [2] stood at 53 ng/mL; in series [4], 967 ng/g; in [5], 102 ng/mL; in series [6], 693 ng/g; in series [18], 309 ng/g; in [19], 36 ng/mL. For the same molecule, the concentration at 24 h came out at 45 ng/mL in [3]; 772 ng/g in [8]; 9 ng/mL in [10]; 6 ng/mL in [11]; 242 ng/g in series [13]; 910 ng/g in [14]. The concentration in [7] peaked (Cmax) at 22 ng/mL. The molecule further had a bioavailability in series [9] of 4%. Besides, in [12], the Tmax stood at 1 h. Besides, in series [1] (read-out: solubility), the solubility came out at 10 µg/mL (≈ 20.3 µM). In addition, the AUC(0-inf) in series [15] worked out at 234 ng·h/mL; in [17], 542 ng·h/mL. For the same molecule, the Vd in series [16] was determined as 30 L/kg.

With `CC[C@H](N)C(=O)N1CCc2c(C)c3c(n2-c2ccc(C(N)=O)c(c2)N[C@@H](C)[C@H](C)C1)CC(C)(C)CC3=O`, the solubility in series [1] (read-out: solubility) was over 100 µg/mL.

As to `Cc1c2c(n3c1CCN(C(=O)[C@@H](N)C(C)C)C[C@@H](C)[C@H](C)Nc1cc-3ccc1C(N)=O)CC(C)(C)CC2=O`, the solubility in series [1] (read-out: solubility) is over 100 µg/mL.

As to `Cc1c2c(n3c1CCN(C(=O)C(C)(C)N)C[C@@H](C)[C@H](C)Nc1cc-3ccc1C(N)=O)CC(C)(C)CC2=O`, the solubility in [1] (read-out: solubility) is over 100 µg/mL.

In the case of `Cc1c2c(n3c1CCN(C(=O)C1(N)CC1)C[C@@H](C)[C@H](C)Nc1cc-3ccc1C(N)=O)CC(C)(C)CC2=O`, in [1] (read-out: solubility), the solubility is 7 µg/mL (≈ 13.8 µM).

In the case of `Cc1c2c(n3c1CCN(C(=O)C1(N)CCCC1)C[C@@H](C)[C@H](C)Nc1cc-3ccc1C(N)=O)CC(C)(C)CC2=O`, the solubility in series [1] (read-out: solubility) is 53 µg/mL (≈ 99.3 µM).

For `Cc1c2c(n3c1CCN(C(=O)[C@@H]1CCCN1)C[C@@H](C)[C@H](C)Nc1cc-3ccc1C(N)=O)CC(C)(C)CC2=O`, in series [1] (read-out: solubility), the solubility was over 100 µg/mL.

As to `Cc1c2c(n3c1CCN(C(=O)[C@H]1CCCN1)C[C@@H](C)[C@H](C)Nc1cc-3ccc1C(N)=O)CC(C)(C)CC2=O`, the solubility in series [1] (read-out: solubility) is over 100 µg/mL.

As for `Cc1c2c(n3c1CCN(C(=O)[C@H](C)O)C[C@@H](C)[C@H](C)Nc1cc-3ccc1C(N)=O)CC(C)(C)CC2=O`, the solubility in series [1] (read-out: solubility) stood at 60 µg/mL (≈ 121 µM).

In the case of `Cc1c2c(n3c1CCN(C(=O)[C@@H](O)C(C)C)C[C@@H](C)[C@H](C)Nc1cc-3ccc1C(N)=O)CC(C)(C)CC2=O`, the solubility in [1] (read-out: solubility) amounted to 30 µg/mL (≈ 57.4 µM).
